Experimental data: patent US20110028566A1, “COMPOSITIONS AND PRODUCTS CONTAINING CYCLOALIPHATIC DIOL ANTIMICROBIAL AGENTS AND METHODS OF USING THE COMPOSITIONS AND PRODUCTS” (EASTMAN CHEMICAL COMPANY, priority 2009, published 2011)
Where “and” joins values, the source holds several entries; their conditions need not be identical. Equal entries are not always repeated.

Assays:
[1] = tested on: Escherichia coli ATCC 25922; assay: MIC determination and synergy testing (Kull synergy index), microplate; type: cell-based; conditions: for QB/b: concentration of CG (MIC alone, or in the combination at an inhibitory concentration) / SI (synergy index) / QA, MIC of CHDM alone / QA/a: concentration of CHDM (MIC alone, or in the combination at an inhibitory concentration) / QA/a: concentration of CHDM alone (QA, MIC): E. coli; for QB/b: concentration of CG (MIC alone, or in the combination at an inhibitory concentration) / SI (synergy index) / QA/a: concentration of CHDM (MIC alone, or in the combination at an inhibitory concentration): plate 107A, CG and CHDM
Description: The test cultures are listed in Table 7 along with the incubation temperatures used for growth and minimum inhibitory concentration (MIC) testing. […] C. albicans was cultured in Sabouraud dextrose broth (SDB) for approximately 44-52 hours for preparation of inoculum. A. niger was cultured on Sabouraud dextrose agar (SDA) for 3-4 days until there was confluent growth and visible spore formation. Spores were harvested from the SDA plates by flooding the surface of the plate with 5-10 mL of phosphate-buffered saline (PBS) and gently spreading the liquid across the surface of the plate with a sterile T-shaped plastic spreader (Copan Diagnostics) until there was a well-mixed suspension of spores. The resulting spore suspension was collected using a serological pipette and stored at 2-8° C. until use.
Inoculum concentration was determined by dilution plating of the cultures or spore suspension. A serial dilution in PBS was made to 10^−8 for the bacterial cultures or 10^−5 for the fungal cultures. Fifty or 100 μL of the final dilution was spread on two Trypticase-soy agar (TSA) plates for bacteria or two SDA plates for fungi. After 24 to 48 hours plates were counted and the concentrations used in each experiment were calculated.
The antimicrobial agents tested for synergy along with the respective diluents and working stock solution concentrations are shown below. For determination of MIC ranges, individual antimicrobial agent stock solutions were added to sterile medium to yield the highest level test concentrations, and then serially diluted in the medium to prepare the range of test concentrations. For synergy testing individual test concentrations were prepared in sterile medium, and then blended to form the desired combinations.
MICs were determined using a high-throughput microplate method. Individual antimicrobial agents were added to TSB (pH 7.3) for bacterial testing or SDB (pH 5.6) for fungal testing at the highest concentration to be tested. A serial dilution series was prepared at a dilution ratio of 1:1.3333 such that a one log range was covered in nine dilutions. Two-hundred microliters of the diluted antimicrobial agents were dispensed into four wells each of a sterile, 96-well, flat-bottom microplate (Nalge Nunc International). Four additional wells of the highest concentration were dispensed to serve as uninoculated high-level controls. Eight additional wells containing only broth medium were also prepared, four to serve as negative controls and four as positive controls. Three wells of each antimicrobial agent dilution were inoculated with one of the test strains in Table 7. The final well of each antimicrobial agent dilution was left uninoculated to serve as a control (and means of compensating) for any absorbance/turbidity due to the test compounds.
Microplates were inoculated using the cultures or spore suspensions prepared as described above. The S. aureus cultures were used undiluted, while the E. coli and P. aeruginosa cultures were used either undiluted or after a 1:2 dilution in sterile TSB. The C. albicans cultures were used either undiluted or following a 2-fold concentration by centrifugation. One of two means of inoculation was used to deliver a final concentration of approximately 10^5 colony-forming units (CFU)/mL of C. albicans, 10^5 spores/mL of A. niger, or 10^6 CFU/mL of bacteria. The primary method used a stainless steel pin replicator (Nalge Nunc International) mounted on a hand-operated bench-top press (Schmidt Technology Corporation) fitted with a custom-built microplate holder to dispense one microliter of each inoculum from a “master” plate containing 50-100 μL of culture into the wells of the test plate. The pin replicator was sterilized before and between inoculations by immersing in ethanol and flaming. The alternative method of inoculation was by directly pipetting 20 μL of a 1:20 dilution of each culture or spore suspension into the appropriate wells of the test plates.

[2] = tested on: challenge organisms (fungi, Gram negative and Gram positive bacteria); assay: Microbial challenge testing (Example 1), statements over all challenge organisms; type: cell-based; conditions: Table 6 experiments; glycol 0.5 to 2.5 wt %, BIT 0.05 and 0.2 wt %; from grade codes
Description: The microorganisms used in challenge tests are given in Table 3, designated as either ATCC (American Type Culture Collection) or wild type. These wild type organisms were problematic organisms previously isolated from chemical products. In the description for each organism, the bacteria are indicated as either GN (Gram negative) or GP (Gram positive). […] Sample substrates were prepared in triplicate, except those substrates containing PE or CG which were prepared in duplicate. […] After mixing, all challenged substrates were incubated at 35° C.±2° C. for 14 days and then at ambient room temperature. […] The turbidity of the sample was determined and, if needed, the sample was diluted with phosphate buffer (pH 7.2) to produce readable plate counts (see “Plate Counts” below). […] For diluted samples, plates producing 22 to 220 colonies per plate were counted and the count was multiplied by the dilution factor. […] Possible synergies were determined by treating the grade code as an estimate of the log of the microbial count (log of cfu/mL). […] Synergies were determined in the same way as described above for Table 5. […] As mentioned previously, synergies (as indicated in Tables 5 and 6) were determined by treating the grade codes as the logarithm (log) of the organism counts (cfu/ml), then adding log reductions for the individual components and comparing to the log reduction for the mixture. […]

Compound: CCCCCCC(O)CO (centres unmarked) [CG, 1,2-octanediol]
- QB/b: concentration of CG (MIC alone, or in the combination at an inhibitory concentration) ([1]; day 1): 0.16 weight percent
- SI (synergy index) ([1]; day 1): 1.00
- QB/b: concentration of CG (MIC alone, or in the combination at an inhibitory concentration) ([1]; day 2): 0.16 weight percent
- SI (synergy index) ([1]; day 2): 1.00

Compound: CC1(C)C(O)C(C)(C)C1O (centres unmarked) [TMCD, 2,2,4,4-tetramethyl-1,3-cyclobutanediol]
- Synergism of cycloaliphatic diol with BIT (in words) [2]: significant enhancement to the antimicrobial activity of BIT

Compound: OCC1CCC(CO)CC1 (centres unmarked) [1,4-CHDM, 1,4-cyclohexanedimethanol]
- Synergism of cycloaliphatic diol with BIT (in words) [2]: significant enhancement to the antimicrobial activity of BIT
- QA/a ([1]; CHDM alone (QA) or in combination with BA:DHA (a), plate 111A, day 1): 1.73
- QA/a ([1]; CHDM alone (QA) or in combination with IPBC (a), plate 119A, day 1): 1.73
- QA/a ([1]; CHDM alone (QA) or in combination with IPBC (a), plate 119A, day 2): 1.73
- QA/a ([1]; CHDM: MIC alone (QA) or conc. in combination with CP (a), plate 110A, day 1): 1.73
- QA/a ([1]; CHDM: MIC alone (QA) or conc. in combination with CP (a), plate 110A, day 2): 1.73
- QA, MIC of CHDM alone ([1]; day 1 of incubation, plate 108A (MP series)): 1.73 weight percent
- QA, MIC of CHDM alone ([1]; day 1 of incubation, plates 105A, 213A, 223A (PE series)): 1.30 weight percent and 1.47 weight percent
- QA, MIC of CHDM alone ([1]; day 2 of incubation, plate 108A (MP series)): 1.73 weight percent
- QA, MIC of CHDM alone ([1]; day 2 of incubation, plates 105A, 213A, 223A (PE series)): 1.30 weight percent and 1.47 weight percent
- QA/a: concentration of CHDM (MIC alone, or in the combination at an inhibitory concentration) ([1]; day 1): 1.73 weight percent
- SI (synergy index) ([1]; day 1): 1.00
- QA/a: concentration of CHDM (MIC alone, or in the combination at an inhibitory concentration) ([1]; day 2): 1.73 weight percent
- SI (synergy index) ([1]; day 2): 1.00
- QA/a: concentration of CHDM alone (QA, MIC) ([1]; Table 44, Day 1): 1.73 weight percent
- QA/a: concentration of CHDM alone (QA, MIC) ([1]; Table 44, Day 2): 1.73 weight percent
- QA/a: concentration of CHDM alone (QA, MIC) ([1]; Table 47, Day 1): 1.73 weight percent
- QA/a: concentration of CHDM alone (QA, MIC) ([1]; Table 47, Day 2): 1.73 weight percent
